Values quoted from earlier work in patent publication US20080139483A1, “DRUG COMBINATION FOR HYPERTENSIVE DISORDERS” (priority 2006, published 2008).

Experiments:
patients with PAH = settings: does not appear to be dose related

COC(c1ccccc1)(c1ccccc1)[C@H](Oc1nc(C)cc(C)n1)C(=O)O [ambrisentan]
drug interactions (p450 induction or inhibition) (p450): no p450 induction or inhibition
potential liver toxicity (patients with PAH): low incidence and severity of potential liver toxicity
